Laboratory results reported in patent publication US20140295012A1, “LATENT HUMAN IMMUNODEFICIENCY VIRUS REACTIVATION” (priority 2011, published 2014).

B1: HEXIM-1 (other, UniProt O94992 1-359, looked up)
chain: MAEPFLSEYQHQPQTSNCTGAAAVQEELNPERPPGAEERVPEEDSRWQSRAFPQLGGRPGPEGEGSLESQPPPLQTQACPESSCLREGEKGQNGDDSSAGGDFPPPAEVEPTPEAELLAQPCHDSEASKLGAPAAGGEEEWGQQQRQLGKKKHRRRPSKKKRHWKPYYKLTWEEKKKFDEKQSLRASRIRAEMFAKGQPVAPYNTTQFLMDDHDQEEPDLKTGLYSKRAAAKSDDTSDDDFMEEGGEEDGGSDGMGGDGSEFLQRDFSETYERYHTESLQNMSKQELIKEYLELEKCLSRMEDENNRLRLESKRLGGDDARVRELELELDRLRAENLQLLTENELHRQQERAPLSKFGD

What was measured:
[1] = test system: latently HIV-1 infected CA5 T cells; type: cell-based; conditions: CA5 cells pretreated with increasing concentrations
Method: Infection levels in the cell cultures were monitored by flow cytometric analysis of EGFP expression. Flow cytometric analysis was performed on a GUAVA EasyCyte (Millipore; Billerica, Mass.), or a LSRII (Becton & Dickinson; Franklin Lakes, N.J.).
Bacterial growth. Bacteria from various sources were isolated on TSA II agar plates containing 5% sheep blood. Bacterial isolates were then grown in RPMI 1640 medium supplemented with 10% FBS. After two days of incubation at 37° C. bacteria were pelleted and resuspended in RPMI medium to an optical density (OD600) of 8, aliquoted and frozen at −80° C. Unless otherwise indicated, Massilia timonae was grown in RPMI 1640 medium supplemented with 10% FBS. Typically, medium was inoculated with Massilia timonae from frozen stocks to an OD600 of 0.01. After 48 hours at 37° C., the culture was centrifuged at 3200 g to separate bacteria from the culture medium. Bacteria were resuspended in fresh medium to an OD600 of 8 and frozen to be used as references and stock cultures. The supernatant was then centrifuged at 10,000 g for 20 minutes and sterilized by passage through a 0.2 μm PVDF filter with low protein binding ability. HRF activity was determined by its ability to reactivate latent HIV-1 infection in CA5 cells. Only supernatants of which 6 μl reactivated infection in at least 60% of CA5 cells were used to study HRF properties.
Flow cytometry. Infection levels in the cell cultures were monitored by flow cytometric (FCM) analysis of GFP expression. FCM analysis was performed on a GUAVA EasyCyte (GUAVA Technologies, Inc.; Millipore; Billerica, Mass.) and a BD FACSCalibur or a LSRII (Becton & Dickinson; Franklin Lakes, N.J.). Cell sorting experiments were performed using a FACSAria™ Flow Cytometer (Becton&Dickinson). Data analysis was performed using either CellQuest (Becton&Dickinson) or GUAVA Express (GUAVA Technologies, Inc.).
To identify the optimal concentration of dactinomycin, CA5 T cells were pretreated with increasing concentrations of dactinomycin (0.0001 and 1 μg/ml), and then left untreated or stimulated with a sub-optimal concentration of HRF or TNF-α. Representative results for stimulation with HRF are depicted in FIG. 3. The chosen HRF concentration has only minimal HIV-1 reactivating effect by itself (15% reactivation over background). Twenty four hours after activator addition, levels of HIV-1 reactivation were determined as the percentage of GFP-positive cells using flow cytometric analysis, which allowed for the simultaneous determination of cell viability. […] Optimal pretreatment time was 18 hours. Maximum reactivation effects were seen 48 hours after stimulation.

[2] = test system: latently HIV-1 infected primary T cells; assay: Reactivation of latent HIV-1 infection in primary T cells (GFP); type: cell-based; conditions: 24 hours
Method: Latently HIV-1 infected primary T cells were treated for 24 hours with aclacinomycin (ACM) or dactinomycin (ActD), or with the anti-CD3 monoclonal antibody (mAb) OKT3. Reactivation levels were determined as a percentage of GFP-positive cells 24 hours after stimulation. Viability of the cells correlates with the size of the symbol.
To determine if aclacinomycin or dactinomycin were capable of reactivating a latent HIV-1 infection in primary T cells, latently HIV-1 infected primary T cells were treated with aclacinomycin or dactinomycin or with the anti-CD3 monoclonal antibody OKT3 for 24 hours. Reactivation of the latent HIV-1 infection was observed by increasing levels of GFP fluorescence.

[3] = biological target: T1, positive transcription elongation factor (P-TEFb), a complex of CDK9 and Cyclin T1 (UniProt P50750 1-372; O60563 1-726); assay: glycerol gradient (10-45%) sedimentation of J89GFP cell lysates, Western blot of the fractions with anti-CDK9 and anti-HEXIM-1
T1 construct: also called CDK9/CycT1
T1 sequence (P50750 whole entry, chain 1 of 2): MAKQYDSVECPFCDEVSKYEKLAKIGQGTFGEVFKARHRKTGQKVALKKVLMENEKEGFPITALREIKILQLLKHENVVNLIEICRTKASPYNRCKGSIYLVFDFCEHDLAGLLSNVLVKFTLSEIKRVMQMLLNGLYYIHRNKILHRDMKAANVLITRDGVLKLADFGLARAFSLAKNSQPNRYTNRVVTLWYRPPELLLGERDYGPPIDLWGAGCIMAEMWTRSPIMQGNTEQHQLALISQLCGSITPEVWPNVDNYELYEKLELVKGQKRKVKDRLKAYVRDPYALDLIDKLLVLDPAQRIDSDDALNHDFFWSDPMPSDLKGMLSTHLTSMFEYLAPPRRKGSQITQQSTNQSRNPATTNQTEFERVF
T1 sequence (O60563 whole entry, chain 2 of 2): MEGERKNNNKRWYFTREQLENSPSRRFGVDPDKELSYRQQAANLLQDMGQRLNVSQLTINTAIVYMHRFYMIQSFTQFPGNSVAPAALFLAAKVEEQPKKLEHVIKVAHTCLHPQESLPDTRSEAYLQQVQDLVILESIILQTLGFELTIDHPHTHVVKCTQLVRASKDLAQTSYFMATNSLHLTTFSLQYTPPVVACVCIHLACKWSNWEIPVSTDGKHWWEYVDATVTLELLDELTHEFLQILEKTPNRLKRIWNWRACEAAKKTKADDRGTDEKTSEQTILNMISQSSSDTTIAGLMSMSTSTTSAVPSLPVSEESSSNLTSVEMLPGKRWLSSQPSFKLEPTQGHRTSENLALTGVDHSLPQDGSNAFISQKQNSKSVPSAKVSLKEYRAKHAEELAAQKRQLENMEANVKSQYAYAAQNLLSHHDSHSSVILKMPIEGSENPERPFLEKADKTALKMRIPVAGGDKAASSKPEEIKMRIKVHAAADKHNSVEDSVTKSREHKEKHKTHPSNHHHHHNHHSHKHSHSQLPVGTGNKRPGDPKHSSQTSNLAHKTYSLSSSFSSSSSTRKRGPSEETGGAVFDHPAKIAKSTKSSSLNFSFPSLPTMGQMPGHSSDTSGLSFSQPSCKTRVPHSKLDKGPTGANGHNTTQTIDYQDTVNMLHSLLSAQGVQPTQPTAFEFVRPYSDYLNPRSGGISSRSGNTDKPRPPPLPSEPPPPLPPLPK
Method: Each gradient fraction was separated on a 10% SDS-PAGE gel and transferred by Western blot. […] Band densities were determined using ImageJ and are presented as relative band density. […] Band densities were determined using ImageJ and are presented as relative band density.
Fractions were resolved on 10% SDS-PAGE and transferred to polyvinylidene fluoride membrane.
Each gradient fraction was separated on a SDS-PAGE gel and subjected to Western blotting.

Row | Molecule | priming effect on HIV-1 reactivation by sub-optimal dose of HRF [1] | reactivation of latent HIV-1 infection [2] | binding result [3]
1 | CC[C@@]1(O)C[C@H](O[C@H]2C[C@H](N(C)C)[C@H](O[C@H]3C[C@H](O)[C@H](O[C@H]4CCC(=O)[C@H](C)O4)[C@H](C)O3)[C@H](C)O2)c2c(cc3c(c2O)C(=O)c2c(O)cccc2C3=O)[C@H]1C(=O)OC [aclacinomycin] | strong priming effect | capable of reactivating latent HIV-1 infections | 
2 | B1 |  |  | binds
